These results are taken from patent publication US20140378515A1, “IMMUNOSUPPRESSIVE COMPOUNDS” (priority 2013, published 2014).

≈ marks a conversion by molar mass, not a printed value. Like-named read-outs stand apart in the source and are kept apart here. A value given as a limit tells only on which side of the number the result lay.

Data set [1] relates to ROS produced by human blood phagocytes. Description: Oxidative burst, luminol-enhanced chemiluminescence in whole blood. It counts as cell-based. The conditions noted are these: serum opsonized zymosan. As to the method:
Formation of the reactive oxygen species (ROS) in whole blood, during the oxidative burst was measured by the luminol-enhanced chemiluminescence assay. In brief, three concentrations of each compound (1.0, 10 and 100 μg/mL) were prepared in 25 μL of Hank's Balanced salt solution containing calcium chloride and magnesium sulfate (HBSS^++) in a half area 96-well white flat-bottomed plate (Sigma Aldrich, Steinheim, Germany) in a final volume of 100 μL. Then 25 μL of whole blood diluted 1:50 in suspension of HBSS^++ was added.
Positive and negative controls and blank wells were included. Cells and compounds were incubated for 30 minutes at 37° C., then 25 μL luminol [3-aminophthalhydrazide] (Research Organics Cleveland, Ohio, USA), were added into each well followed by 25 μL of serum opsonized zymosan (Saccharomyces cerevisiae origin) purchased from Fluka, Buchs (Switzerland) was added except for negative and blank wells. The ROS chemiluminescence kinetic was monitored with a luminometer from Labsystems (Helsinki, Finland), for 50 minutes in the repeated scan mode. Peak and total integral chemiluminescence readings were expressed in the relative light unit.

Data set [2] concerns NO produced by mouse macrophages J774.2 cell line. Briefly: Nitrite accumulation in LPS-stimulated J774.2 macrophages (Griess method). The class given is cell-based. The conditions noted are these: LPS-stimulated J774.2, 24 hours. How it is done: The mouse macrophage cell line J774.2 obtained from ECACC, Salisbury, Wiltshire (UK) was cultured in T75 flasks in complete DMEM containing 10% fetal bovine serum and supplemented with 1% streptomycin/penicillin. Flasks were kept at 37° C. in the atmosphere of humidified air containing 5% CO2. Cell were then seeded in 24 well (10^6 cells/mL) and nitric oxide synthase (NOS-2) in the macrophages was induced by addition of 20 μg/mL E. coli lipopolysaccharide (DIFCO Laboratories, Michigan, USA). The test compounds were added at a concentration of 25 μg/mL soon after LPS stimulation and incubated at 37° C. in 5% CO2. Cell culture supernatant was collected after 24 hours. Nitrite accumulation in J774.2 cell culture supernatant was measured using the Griess method, where 50 μL of 1% sulphanilamide in 2.5% phosphoric acid, followed by 50 μL of 0.1% naphtyl-ethylene diamine dihydrochloride in 2.5% phosphoric acid were added to 50 μL culture medium. After 10 minutes of incubation at room temperature the absorbance at 550 nm was read. Micromolar concentrations of nitrite were calculated from standard curve constructed with sodium nitrite a reference compound. The results were expressed as means±SD of duplicate readings.
Background: Nitrite, measured by Griess reagent, commonly stands in for NO production.

Another data set relates to T-cell proliferation. Briefly: T-cell proliferation assay (PHA-stimulated PBMNCs, 3H-thymidine incorporation). The class given is cell-based, human. The conditions noted are these: PHA 5 μg/mL stimulated PBMNCs. Further details: unit not given here. How it is done: The diluted blood was then layered onto lymphocyte separation medium (MP Biomedicals, Inc., Ohio, USA) and centrifuged at 400 g for 20 min at 25° C. […] Plates were then incubated at 37° C. in a humidified atmosphere of 5% CO2 in air for 72 hours. To each well, 0.5 μCi [methyl ^3H]-thymidine (Amersham Place Little Chalfont, Buckinghamshire, UK) was added for an additional 18 hours. Cells were harvested using a cell harvester (Inotech, Dottikon, Switzerland), and incorporation and level of radioactivity was measured by a liquid scintillation counter (Beckman coulter, LS 6500, Fullerton, Calif., USA).
(Uptake of a labelled nucleoside into DNA is a usual measure of proliferation.)

In data set [3] the test system is 3T3 NIH mouse embryo fibroblast cell line.
Procedure: (§1) The 3T3-NIH cells were suspended in Dulbecco's Modified Eagle's Medium (DMEM) formulated with 10% FBS. Using flat bottomed plates, cells were plated at a concentration of 6×10^4 cells/mL and incubated for 24 h at 37° C. and 5% CO2 environment. […] Following exposure to each compound, cell viability was assessed by using 0.5 mg/mL of MTT {3-(4,5-dimethylthiazol-2-yl)-2,5-diphenyltetrazolium bromide for 4 h followed by the removal of supernatant and addition of DMSO to solubilize the formazan complex. The plates were read at 540 nm after one minute shaking and readings were processed using MS Excel software. The results were expressed as means±SD of triplicate readings.
A further data set relates to IL-2 production. Description: IL-2 production by PHA/PMA stimulated PBMCs (ELISA). The class given is cell-based, human. The conditions noted are these: experimental IL-2 IC50 listed in Table 3. As to the method: The PBMCs were cultured in a 96-well flat-bottomed plate (1.0×10^5 cell/well) in the presence or absence of three concentrations of test compounds (1.0, 5.0 and 20 μg/mL), and phytohemagglutinin (PHA) phorbol myristate acetate (PMA) in a final concentration of 5 ng/mL and 20 ng/mL, respectively. After an incubation period of 18 h at 37° C. in a humidified atmosphere of 5% CO2 in air, the supernatant was collected for IL-2 determination. Interleukin-2 levels were measured by using enzyme-linked immunosorbent assay (ELISA) development kit (R&D systems, Minneapolis, Minn., USA). The assay was performed according to the manufacturer's instructions. Briefly, a 96-well flat-bottomed ELISA plate was coated with 4.0 μg/mL mouse anti-human IL-2, in PBS, pH 7.4. Then, re-combinant human IL-2 standards and culture supernatant samples were added and incubated for 2 h followed by washing steps and then the addition of biotinylated goat anti-human IL-2. After an incubation period of 2 h at room temperature, the plates were again washed and streptavidin conjugated horse raddish peroxidase was added and incubated for additional 20 min at room temperature. After the final washes, an enzyme substrate solution of H2O2 and tetra methyl benzidine (1:1 v/v) was added and the color was allowed to develop at room temperature in the dark. The plates were then read at 450 nm in a plate reader (DIAReader GMBH, Wr. Neudorf, Austria). The results were analyzed using Microsoft Excel.
On the technique in general: ELISA stands for enzyme-linked immunosorbent assay.

The test system of data set [4] is NO produced by mouse macrophages J774.2 cell line. Briefly: Nitrite accumulation in LPS-stimulated J774.2 macrophages (Griess method). The class given is cell-based.
The subject of data set [5] is 3T3 NIH mouse embryo fibroblast cell line. Briefly: MTT cytotoxicity assay. The conditions noted are these: for Cytotoxicity IC50: 3T3 NIH cells, 48 h; for interference with the growth of 3T3 cells: up to 20 μg/mL.
Procedure: as §1
In a further data set the test system is IL-4 production. Description: IL-4 production by PHA stimulated PBMNCs (ELISA). The class given is cell-based, human. The conditions noted are these: 18 h. How it is done: The PBMNCs were cultured in a 96-well flat-bottomed plate (2.0×10^6 cell/mL) in the presence or absence of three concentrations of test compounds (1.0, 5.0, and 25 μg/mL), and phytohemagglutinin (PHA) in a final concentration of 7.5 μg/mL. After an incubation period of 18 h at 37° C. in 5% CO2, supernatant was collected for IL-4 determination. Interleukin-4 levels were measured by using enzyme-linked immunosorbent assay (ELISA) kit (Diaclone, France). The assay was performed according to the manufacturer's instructions. Briefly, in a 96-well ELISA plate which was coated with monoclonal mouse anti-human IL-4, 100 μl recombinant human IL-4 standards and culture supernatants samples were added. The plates were incubated for 2 hours at room temperature and washed three times with wash buffer, followed by the addition of biotinylated goat anti-human IL-4 and further incubated for 1 hour at room temperature. The plates were again washed and streptavidin conjugated horse raddish peroxidase was added and incubated for an additional 20 minutes at room temperature. After three final washes, the enzyme substrate solution was added and incubated for 12 to 15 minutes to allow color development at room temperature in the dark. Then stop solution was added and the plates were read at 450 nm in a plate reader (DIAReader GMBH, Wr. Neudorf, Austria). The results were analyzed using Microsoft Excel.

Consider `COc1cccc(-c2nc3ccccc3s2)c1O` [Compound 2], for which the “IC50 (μg/mL) for phagocytes ROS” value in data set [1] worked out at 1.9 ± 0.6 µg/mL. Also, the “% of NO inhibited by 25 μg/mL of compound” value (“% of NO inhibited” for short) in data set [2] is 28.9 ± 1.3%. The “IC50 T-cell proliferation” value in the data set with T-cell proliferation worked out at 2.97±0.3. In addition, in data set [3], the “Cytotoxicity IC50” value was greater than 25 µg/mL. The half-inhibitory concentration (IC50) with IL-2 production is less than 1 µg/mL.
For the molecule `Oc1ccc(-c2nc3ccccc3s2)cc1` [Compound 4], the “IC50 (μg/mL) for phagocytes ROS” value in data set [1] is greater than 100 µg/mL. The “% of NO inhibited” value in data set [2] stood at 56.1±0.6%. Besides, in the data set on T-cell proliferation, the “IC50 T-cell proliferation” value is 2.3±0.1. The “IC50 NO production” value in data set [4] is 7.9 ± 0.9 µg/mL (≈ 34.8 µM). For the same molecule, in data set [5], the “Cytotoxicity IC50” value was greater than 25 µg/mL and the “interference with the growth of 3T3 cells” value was “did not interfere with the growth of 3T3 cells”. The “IC50” value in the data set with IL-2 production turned out to be 2.9 µg/mL (≈ 12.8 µM).
In the case of `Oc1ccc(O)c(-c2nc3ccccc3s2)c1` [Compound 8], in data set [1], the “IC50 (μg/mL) for phagocytes ROS” value is less than 1 µg/mL. The “% of NO inhibited” value in data set [2] is recorded as 91.1±0.7%. Moreover, in the data set with T-cell proliferation, the “IC50 T-cell proliferation” value turned out to be 1.1±0.1. Further, the “IC50 IL-4 production” value in the data set with IL-4 production is 9.8 ± 0.6 µg/mL (≈ 40.3 µM). For the same molecule, the “IC50 NO production” value in data set [4] is less than 5 µg/mL. In addition, in data set [5], the “Cytotoxicity IC50” value was greater than 20 µg/mL and the “interference with the growth of 3T3 cells” value is listed as “did not interfere with the growth of 3T3 cells”. Further, in the data set with IL-2 production, the half-inhibitory concentration (IC50) was less than 1 µg/mL.

In general, IC50 refers to the concentration that inhibits the measured activity by half.
